Experimental data reported in ChEMBL document CHEMBL3272271, “Folate antagonists. 13. 2,4-Diamino-6-](alpha,alpha,alpha-trifluoro-m-tolyl)thio]quinazoline and related 2,4-diamino-6-[(phenyl- and naphthyl)thio]quinazolines, a unique class of antimetabolites with extraordinary antimalarial and antibacterial effects” (J Med Chem, 1978).
Calls of active or inactive are those of the source. The rule behind the calls is not given here.

How the values were obtained:
Enterococcus faecalis = test: Antibacterial activity against Streptococcus faecalis MGH-2 by gradient plate test; assay type: functional
Staphylococcus aureus [1] = test: Antibacterial activity against Staphylococcus aureus UC-96 by gradient plate test; assay type: functional
Staphylococcus aureus [2] = test: Antibacterial activity against drug-resistant Staphylococcus aureus S18713 by gradient plate test; assay type: functional
Pseudomonas aeruginosa = test: Antibacterial activity against Pseudomonas aeruginosa 28 by gradient plate test; assay type: functional
Escherichia coli = test: Antibacterial activity against Escherichia coli Vogel by gradient plate test; assay type: functional
Shigella sonnei = test: Antibacterial activity against Shigella sonnei C-10 by gradient plate test; assay type: functional
Gallus gallus [3] = test: Toxicity in sporozoite-induced Plasmodium gallinaceum infected white leghorn chicken assessed as mortality at 480 mg/kg, sc administered 72 hrs after infection measured up to 6 days; assay type: organism-based; set-up: dose 480 mg/kg, route subcutaneous; details: in vivo
Plasmodium gallinaceum [4] = test: Antimalarial activity against sporozoite-induced Plasmodium gallinaceum infected in white leghorn chicken assessed as increase in mean survival days of host at 240 mg/kg, sc administered 72 hrs after infection relative to control; assay type: functional; details: route subcutaneous
Gallus gallus [5] = test: Toxicity in sporozoite-induced Plasmodium gallinaceum infected white leghorn chicken assessed as mortality at 240 mg/kg, sc administered 72 hrs after infection measured up to 6 days; assay type: organism-based; set-up: dose 240 mg/kg, route subcutaneous; details: in vivo
Plasmodium gallinaceum [6] = test: Antimalarial activity against sporozoite-induced Plasmodium gallinaceum infected in white leghorn chicken assessed as increase in mean survival days of host at 120 mg/kg, sc administered 72 hrs after infection relative to control; assay type: functional; details: route subcutaneous
Plasmodium berghei [7] = test: Antimalarial activity against Plasmodium berghei infected in mouse assessed as increase in mean survival days of host at 320 mg/kg, sc administered 72 hrs after infection relative to control; assay type: functional; details: route subcutaneous
Plasmodium berghei [8] = test: Antimalarial activity against Plasmodium berghei infected in mouse assessed as increase in mean survival days of host at 160 mg/kg, sc administered 72 hrs after infection relative to control; assay type: functional; details: route subcutaneous
Plasmodium berghei [9] = test: Antimalarial activity against Plasmodium berghei infected in mouse assessed as increase in mean survival days of host at 80 mg/kg, sc administered 72 hrs after infection relative to control; assay type: functional; details: route subcutaneous
Plasmodium berghei [10] = test: Antimalarial activity against Plasmodium berghei infected in mouse assessed as increase in mean survival days of host at 40 mg/kg, sc administered 72 hrs after infection relative to control; assay type: functional; details: route subcutaneous
Plasmodium berghei [11] = test: Antimalarial activity against Plasmodium berghei infected in mouse assessed as increase in mean survival days of host at 20 mg/kg, sc administered 72 hrs after infection relative to control; assay type: functional; details: route subcutaneous
Plasmodium berghei [12] = test: Antimalarial activity against Plasmodium berghei infected in mouse assessed as increase in mean survival days of host at 10 mg/kg, sc administered 72 hrs after infection relative to control; assay type: functional; details: route subcutaneous
Plasmodium berghei [13] = test: Antimalarial activity against Plasmodium berghei infected in mouse assessed as increase in mean survival days of host at 5 mg/kg, sc administered 72 hrs after infection relative to control; assay type: functional; details: route subcutaneous
Plasmodium berghei [14] = test: Antimalarial activity against Plasmodium berghei infected in mouse assessed as disease cure from parasite infection at 320 mg/kg, sc administered 72 hrs after infection; assay type: functional, organism-based; set-up: dose 320 mg/kg
Plasmodium berghei [15] = test: Antimalarial activity against Plasmodium berghei infected in mouse assessed as disease cure from parasite infection at 160 mg/kg, sc administered 72 hrs after infection; assay type: functional, organism-based; set-up: dose 160 mg/kg
Plasmodium berghei [16] = test: Antimalarial activity against trophozoite-induced Plasmodium berghei infected in mouse assessed as daily dose required to suppression of 90% parasite infection administered with diet for 6 days; assay type: functional
Plasmodium berghei [17] = test: Ratio of quinine hydrochloride SD90 to compound SD90 for trophozoite-induced Plasmodium berghei infected in mouse assessed as daily dose required to suppression of 90% parasite infection administered with diet for 6 days; assay type: functional
Plasmodium gallinaceum [18] = test: Antimalarial activity against trophozoite-induced Plasmodium gallinaceum infected in white leghorn chicken assessed as increase in mean survival days of host at 320 mg/kg, sc administered 72 hrs after infection relative to control; assay type: functional; details: route subcutaneous
Plasmodium gallinaceum [19] = test: Antimalarial activity against trophozoite-induced Plasmodium gallinaceum infected in white leghorn chicken assessed as increase in mean survival days of host at 160 mg/kg, sc administered 72 hrs after infection relative to control; assay type: functional; details: route subcutaneous
Plasmodium gallinaceum [20] = test: Antimalarial activity against trophozoite-induced Plasmodium gallinaceum infected in white leghorn chicken assessed as increase in mean survival days of host at 80 mg/kg, sc administered 72 hrs after infection relative to control; assay type: functional; details: route subcutaneous
Plasmodium gallinaceum [21] = test: Antimalarial activity against trophozoite-induced Plasmodium gallinaceum infected in white leghorn chicken assessed as increase in mean survival days of host at 40 mg/kg, sc administered 72 hrs after infection relative to control; assay type: functional; details: route subcutaneous
Plasmodium gallinaceum [22] = test: Antimalarial activity against trophozoite-induced Plasmodium gallinaceum infected in white leghorn chicken assessed as increase in mean survival days of host at 20 mg/kg, sc administered 72 hrs after infection relative to control; assay type: functional; details: route subcutaneous
Plasmodium gallinaceum [23] = test: Antimalarial activity against trophozoite-induced Plasmodium gallinaceum infected in white leghorn chicken assessed as increase in mean survival days of host at 10 mg/kg, sc administered 72 hrs after infection relative to control; assay type: functional; details: route subcutaneous
Gallus gallus [24] = test: Toxicity in trophozoite-induced Plasmodium gallinaceum infected white leghorn chicken assessed as mortality at 320 mg/kg, sc administered 72 hrs after infection measured after 48 hrs; assay type: organism-based; set-up: dose 320 mg/kg, route subcutaneous; details: in vivo
Plasmodium berghei [25] = test: Antimalarial activity against Plasmodium berghei infected in mouse assessed as increase in mean survival days of host at 2.5 mg/kg, sc administered 72 hrs after infection relative to control; assay type: functional; details: route subcutaneous
Plasmodium berghei [26] = test: Antimalarial activity against Plasmodium berghei infected in mouse assessed as increase in mean survival days of host at 1.25 mg/kg, sc administered 72 hrs after infection relative to control; assay type: functional; details: route subcutaneous
Plasmodium gallinaceum [27] = test: Antimalarial activity against trophozoite-induced Plasmodium gallinaceum infected in white leghorn chicken assessed as increase in mean survival days of host at 5 mg/kg, sc administered 72 hrs after infection relative to control; assay type: functional; details: route subcutaneous
Plasmodium gallinaceum [28] = test: Antimalarial activity against trophozoite-induced Plasmodium gallinaceum infected in white leghorn chicken assessed as increase in mean survival days of host at 2.5 mg/kg, sc administered 72 hrs after infection relative to control; assay type: functional; details: route subcutaneous
Plasmodium gallinaceum [29] = test: Antimalarial activity against trophozoite-induced Plasmodium gallinaceum infected in white leghorn chicken assessed as increase in mean survival days of host at 1.25 mg/kg, sc administered 72 hrs after infection relative to control; assay type: functional; details: route subcutaneous

## Nc1nc(N)c2cc(Sc3ccccc3)ccc2n1
Enterococcus faecalis
  MIC: < 0.25 µg/mL
Staphylococcus aureus [1]
  MIC: < 0.25 µg/mL
Staphylococcus aureus [2]
  MIC: < 0.25 µg/mL
Pseudomonas aeruginosa
  MIC: > 25 µg/mL
Escherichia coli
  MIC: < 0.25 µg/mL
Shigella sonnei
  MIC: < 0.25 µg/mL
Gallus gallus [3]
  Activity: Toxic
Plasmodium gallinaceum [4]
  MST: 1.6 days
Gallus gallus [5]
  Activity: Toxic
Plasmodium gallinaceum [6]
  MST: 2.4 days
Plasmodium berghei [7]
  MST: 14.7 days
Plasmodium berghei [8]
  MST: 14 days
Plasmodium berghei [9]
  MST: 9.7 days
Plasmodium berghei [10]
  MST: 6.3 days
Plasmodium berghei [11]
  MST: 4.7 days
Plasmodium berghei [12]
  MST: 3.3 days
Plasmodium berghei [13]
  MST: 1.1 days
Plasmodium berghei [14]
  Activity: Active
Plasmodium berghei [15]
  Activity: Active
Plasmodium berghei [16]
  SD90: 8.2 mg/kg/day
Plasmodium berghei [17]
  Ratio: 9.1
Plasmodium gallinaceum [18]
  MST: 11.4 days
Plasmodium gallinaceum [19]
  MST: 7.8 days
Plasmodium gallinaceum [20]
  MST: 6.4 days
Plasmodium gallinaceum [21]
  MST: 6.2 days
Plasmodium gallinaceum [22]
  MST: 5.6 days
Plasmodium gallinaceum [23]
  MST: 0 days

## CN(Cc1ccc(Cl)c(Cl)c1)c1ccc2nc(N)nc(N)c2c1
Gallus gallus [24]
  Activity: Toxic
Plasmodium berghei [11]
  MST: 14.9 days
Plasmodium berghei [12]
  MST: 7.5 days
Plasmodium berghei [13]
  MST: 2.9 days
Plasmodium berghei [25]
  MST: 1.5 days
Plasmodium berghei [26]
  MST: 0.3 days
Plasmodium gallinaceum [19]
  MST: 21 days
Plasmodium gallinaceum [20]
  MST: 20.6 days
Plasmodium gallinaceum [21]
  MST: 15.6 days
Plasmodium gallinaceum [22]
  MST: 10.6 days
Plasmodium gallinaceum [23]
  MST: 7.4 days
Plasmodium gallinaceum [27]
  MST: 6.8 days
Plasmodium gallinaceum [28]
  MST: 6 days
Plasmodium gallinaceum [29]
  MST: 1.4 days
